Laboratory results as given in patent publication US5389641A, “Fused heterocyclic compounds, having angiotensin II antagonistic activity” (Takeda Chemical Industries, Ltd., priority 1991, dated 1995).

What was measured:
[1] = molecular target: T1, AII receptor (Bos taurus, UniProt P25104); test: Inhibition of binding of [125I]-angiotensinII to AII receptor (radioreceptor assay); conditions: 1 h, membrane fraction from bovine adrenal cortex, room temperature, one hour; for inhibition at 1 µM: 10^-6 (M); for inhibition at 0.1 µM: 10^-7 (M)
T1 construct: An AII receptor membrane fraction was prepared from bovine adrenal cortex; from tissue; host or cells: bovine adrenal cortex, membrane fraction
T1 sequence (P25104 1-359): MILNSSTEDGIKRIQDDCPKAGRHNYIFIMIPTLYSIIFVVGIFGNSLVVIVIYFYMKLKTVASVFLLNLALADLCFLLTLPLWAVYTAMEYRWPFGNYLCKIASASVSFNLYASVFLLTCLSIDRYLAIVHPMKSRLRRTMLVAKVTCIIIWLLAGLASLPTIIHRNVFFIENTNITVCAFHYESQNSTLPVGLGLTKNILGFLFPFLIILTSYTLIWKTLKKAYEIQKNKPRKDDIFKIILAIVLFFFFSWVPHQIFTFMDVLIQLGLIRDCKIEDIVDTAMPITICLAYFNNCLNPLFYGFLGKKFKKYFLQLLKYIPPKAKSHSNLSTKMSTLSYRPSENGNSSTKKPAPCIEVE
Protocol: An experiment of inhibition on the binding of angiotensinII (AII) to AII receptor was conducted by modifying the method of Douglas et al. [Endocrinology, 102, 685-696 (1978)]. An AII receptor membrane fraction was prepared from bovine adrenal cortex.
The compound of the present invention (10 ^-6 M or 10^-7 M) and [^125 I]-angiotensinII ([^125 I]-AII) (1.85 kBq/50 μl) were added to the receptor membrane fraction, and the mixture was incubated at room temperature for one hour. The receptor-bound and free [^125 I]-AII were separated through a filter (Whatman GF/B filter), and the radioactivity of [^125 I]-AII bound to the receptor was measured.

[2] = reported in literature; cited from earlier work

Row | inhibition at 1 µM [1] | inhibition at 0.1 µM [1] | Structure (SMILES) | angiotensinII antagonist activity [2]
1 | 70% | 26% | CCCCc1nc2cccc(C(=O)O)c2n1Cc1ccc(-c2ccccc2-c2nnn[nH]2)nc1 [Example 21, 2-Butyl-1-[[2-[2-(1H-tetrazol-5-yl)phenyl]pyridin-5-yl]methyl]benzimidazole-7-carboxylic acid] | –
2 | 19% | 1% | CCc1cc2c(=O)c3cccc(C(=O)OC(C)OC(=O)OC4CCCCC4)c3n(Cc3ccc(-c4ccccc4-c4nnn[nH]4)cc3)c2s1 (stereo not drawn) [Example 15, 1-(Cyclohexyloxycarbonyloxy)ethyl 2-ethyl-4-oxo-9-[[2'-(1H-tetrazol-5-yl)biphenyl-4-yl]methyl]-4,9-dihydrothieno[2,3-b]quinoline-8-carboxylate] | –
3 | 92% | 63% | CCCCc1nc2c(C)cnc(C(=O)O)c2n1Cc1ccc(-c2ccccc2-c2nnn[nH]2)cc1 [Example 1, 2-Butyl-7-methyl-3-[[2'-(1H-tetrazol-5-yl)biphenyl-4-yl]methyl]-3H-imidazo[4,5-c]pyridine-4-carboxylic acid] | –
4 | 39% | 0% | CCCc1cc2cccc(C(=O)O)c2n1Cc1ccc(-c2ccccc2-c2nnn[nH]2)cc1 [Example 17, 2-Propyl-1-[[2'-(1H-tetrazol-5-yl)biphenyl-4-yl]methyl]indole-7-carboxylic acid] | –
5 | 91% | 60% | CCCc1cn2ncc(C(=O)O)c2n1Cc1ccc(-c2ccccc2-c2nn[nH]n2)cc1 [Example 6, 5-Propyl-4-[[2'-(1H-tetrazol-5-yl)biphenyl-4-yl]methyl]-imidazo[1,2-b]pyrazol-3-carboxylic acid] | –
6 | 92% | 54% | CCCc1nc2c(C)cnc(C(=O)O)c2n1Cc1ccc(-c2ccccc2-c2nnn[nH]2)cc1 [Example 2, 2-Propyl-7-methyl-3-[[2'-(1H-tetrazol-5-yl)biphenyl-4-yl]methyl]-3H-imidazo[4,5-c]pyridine-4-carboxylic acid] | –
7 | 69% | 31% | CCc1cc2c(=O)c3cccc(C(=O)OCOC(=O)C(C)(C)C)c3n(Cc3ccc(-c4ccccc4-c4nnn[nH]4)cc3)c2s1 [Example 14, Pivaloyloxymethyl 2-ethyl-4-oxo-9-[[2'-(1H-tetrazol-5-yl)biphenyl-4-yl]methyl]-4,9-dihydrothieno[2,3-b]quinoline-8-carboxylate] | –
8 | 67% | 27% | CCCCc1nc2cccc(C(=O)O)c2n1Cc1ccc(-n2cccc2-c2nnn[nH]2)cc1 [Example 7, 2-Butyl-1-[[4-[2-(1H-tetrazol-5-yl)-1-pyrrolyl]phenyl]methyl]benzimidazole-7-carboxylic acid] | –
9 | 49% | 20% | CCOc1nc(C(=O)O)c2c(n1)nc(OCC)n2Cc1ccc(-c2ccccc2-c2nnn[nH]2)cc1 [Example 13, 2,8-Diethoxy-7-[[2'-(1H-tetrazol-5-yl)biphenyl-4-yl]methyl]purine-6-carboxylic acid] | –
10 | 86% | 54% | CCCc1nn2ncc(C(=O)O)c2n1Cc1ccc(-c2ccccc2-c2nnn[nH]2)cc1 [Example 11, 2-Propyl-1-[[2'-(1H-tetrazol-5-yl)biphenyl-4-yl]methyl]-1H-pyrazolo[1,5-b][1,2,4]triazole-7-carboxylic acid] | –
11 | – | – | CNCC(=O)N[C@@H](CCCN=C(N)N)C(=O)N[C@H](C(=O)N[C@@H](Cc1ccc(O)cc1)C(=O)N[C@H](C(=O)N[C@@H](Cc1cnc[nH]1)C(=O)N1CCC[C@H]1C(=O)N[C@@H](C)C(=O)O)C(C)C)C(C)C [saralasin] | potent
12 | 80% | 39% | CCCCc1nc2cccc(C(=O)O)c2n1Cc1ccc2c(=O)n(-c3ccccc3-c3nnn[nH]3)cnc2c1 [Example 26, 2-Butyl-1-[[4-oxo-3-[2-(1H-tetrazol-5-yl)phenyl]-3,4-dihydroquinazolin-7-yl]methyl]benzimidazole-7-carboxylic acid] | –
13 | 49% | 12% | CCc1cc2c(=O)c3cccc(C(=O)O)c3n(Cc3ccc(-c4ccccc4-c4nnn[nH]4)cc3)c2s1 [Example 3, 2-Ethyl-4-oxo-9-[[2'-(1H-tetrazol-5-yl)biphenyl-4-yl]methyl]-4,9-dihydrothieno[2,3-b]quinoline-8-carboxylic acid] | –
14 | 61% | 21% | CCCc1nn2ncc(C(=O)OCOC(=O)C(C)(C)C)c2n1Cc1ccc(-c2ccccc2-c2nnn[nH]2)cc1 [Example 20, Pivaloyloxymethyl 2-propyl-1-[[2'-(1H-tetrazol-5-yl)biphenyl-4-yl]methyl]-1H-pyrazolo[1,5-b][1,2,4]triazole-7-carboxylate] | –
